The target of test [1] is T1, P2Y purinoceptor 1 (Meleagris gallopavo, UniProt P49652). Description: Evaluated for agonist activity against phospholipase C coupled P2Y purinoceptor 1 (P2Y1) of turkey erythrocytes. It counts as functional.
In test [2] the target is T2, P2X purinoceptor 2 (Rattus norvegicus, UniProt P49653).
T2 sequence (P49653 whole entry): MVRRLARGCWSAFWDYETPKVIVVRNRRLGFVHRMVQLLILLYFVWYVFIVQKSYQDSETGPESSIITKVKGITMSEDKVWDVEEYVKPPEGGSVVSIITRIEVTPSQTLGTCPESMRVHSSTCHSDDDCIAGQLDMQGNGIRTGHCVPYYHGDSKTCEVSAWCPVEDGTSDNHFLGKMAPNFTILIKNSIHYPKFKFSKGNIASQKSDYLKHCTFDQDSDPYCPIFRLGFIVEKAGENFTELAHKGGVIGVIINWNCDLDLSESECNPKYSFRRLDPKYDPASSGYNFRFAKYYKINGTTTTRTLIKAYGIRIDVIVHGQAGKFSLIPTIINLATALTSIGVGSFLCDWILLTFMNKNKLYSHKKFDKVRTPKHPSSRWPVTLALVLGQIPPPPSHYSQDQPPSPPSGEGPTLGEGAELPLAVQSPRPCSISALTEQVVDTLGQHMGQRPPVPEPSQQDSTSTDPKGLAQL
Briefly: The compound was evaluated for antagonist activity against recombinant rat receptor P2X purinoceptor 2 (P2X2) at 10 uM, expressed in Xenopus oocytes. The format is functional, cell-based, Oocyte.

Test [3] addresses T3, P2X purinoceptor 1 (Rattus norvegicus, UniProt P47824).
T3 sequence (P47824 whole entry): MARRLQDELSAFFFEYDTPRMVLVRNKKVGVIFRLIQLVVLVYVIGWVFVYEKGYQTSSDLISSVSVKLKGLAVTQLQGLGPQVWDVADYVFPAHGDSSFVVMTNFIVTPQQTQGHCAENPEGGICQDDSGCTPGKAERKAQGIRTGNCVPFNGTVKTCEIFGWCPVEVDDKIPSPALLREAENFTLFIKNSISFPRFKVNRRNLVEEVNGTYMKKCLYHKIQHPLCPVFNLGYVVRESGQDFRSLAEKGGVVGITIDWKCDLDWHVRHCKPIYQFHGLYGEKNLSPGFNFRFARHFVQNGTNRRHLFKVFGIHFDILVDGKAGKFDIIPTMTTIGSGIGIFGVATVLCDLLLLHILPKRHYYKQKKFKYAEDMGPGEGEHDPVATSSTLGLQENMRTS
Description: The compound was evaluated for antagonist activity against P2X purinoceptor 1 (P2X1) from rat vas deferens. It counts as functional.

The target in test [4] is T3, P2X purinoceptor 1. Briefly: Dissociation constant of the compound at P2X purinoceptor 1 (P2X1) from rat vas deferens was reported.
The target of a further test is T4, P2X purinoceptor 4 (Homo sapiens, UniProt Q99571).
T4 sequence (Q99571 whole entry): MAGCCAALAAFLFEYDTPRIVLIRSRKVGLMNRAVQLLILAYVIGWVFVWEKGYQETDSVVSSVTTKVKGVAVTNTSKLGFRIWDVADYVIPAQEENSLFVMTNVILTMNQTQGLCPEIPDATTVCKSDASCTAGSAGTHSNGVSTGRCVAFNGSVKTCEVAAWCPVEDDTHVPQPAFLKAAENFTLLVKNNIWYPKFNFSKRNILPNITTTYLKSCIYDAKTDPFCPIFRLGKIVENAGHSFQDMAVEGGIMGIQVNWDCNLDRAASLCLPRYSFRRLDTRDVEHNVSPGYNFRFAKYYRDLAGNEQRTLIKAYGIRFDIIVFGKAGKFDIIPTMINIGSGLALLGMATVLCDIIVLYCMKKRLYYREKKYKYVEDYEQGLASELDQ
Briefly: Antagonist activity against recombinant human P2X purinoceptor 4 (P2X4). The format is functional.

For test [5], the target named is T2, P2X purinoceptor 2. Briefly: Antagonist activity against recombinant rat receptor P2X purinoceptor 2 (P2X2) at 10 uM, expressed in Xenopus oocytes. The format is functional, cell-based, Oocyte.
Another test deals with P2Y purinoceptor 2 (Homo sapiens, UniProt P41231). Description: Evaluated for agonist activity against phospholipase C coupled recombinant human P2Y purinoceptor 2 (P2Y2). The format is functional.
Chain of P2Y purinoceptor 2 (P41231 whole entry): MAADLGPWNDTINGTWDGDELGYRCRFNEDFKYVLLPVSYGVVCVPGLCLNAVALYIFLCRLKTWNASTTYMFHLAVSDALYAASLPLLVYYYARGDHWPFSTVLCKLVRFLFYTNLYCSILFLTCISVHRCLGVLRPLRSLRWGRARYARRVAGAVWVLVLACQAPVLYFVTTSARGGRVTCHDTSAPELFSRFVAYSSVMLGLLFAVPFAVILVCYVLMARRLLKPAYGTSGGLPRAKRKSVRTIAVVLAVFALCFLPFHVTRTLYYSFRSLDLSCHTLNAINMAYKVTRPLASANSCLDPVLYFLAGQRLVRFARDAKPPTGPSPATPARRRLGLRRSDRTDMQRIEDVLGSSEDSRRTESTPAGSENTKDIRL
A further test concerns the target T5, P2Y purinoceptor 11 (Homo sapiens, UniProt Q96G91).
T5 sequence (Q96G91 whole entry): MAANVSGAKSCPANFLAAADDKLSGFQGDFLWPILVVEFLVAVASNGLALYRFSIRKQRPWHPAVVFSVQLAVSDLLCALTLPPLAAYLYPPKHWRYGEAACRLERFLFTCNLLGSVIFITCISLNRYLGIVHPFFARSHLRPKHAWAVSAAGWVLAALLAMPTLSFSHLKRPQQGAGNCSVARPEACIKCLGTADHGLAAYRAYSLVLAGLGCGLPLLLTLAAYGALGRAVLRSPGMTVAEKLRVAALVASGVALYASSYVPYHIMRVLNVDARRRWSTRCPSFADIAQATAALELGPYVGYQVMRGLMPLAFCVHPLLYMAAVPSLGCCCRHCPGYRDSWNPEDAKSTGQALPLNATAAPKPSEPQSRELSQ
Description: Agonist activity against phospholipase C coupled human P2Y purinoceptor 11 (P2Y11). It counts as functional.

The target of a further test is P2Y purinoceptor 12 (Rattus norvegicus, UniProt Q9EPX4). Description: Antagonist activity against phospholipase C coupled rat P2Y purinoceptor 12 (P2Y12). The format is functional.
Chain of P2Y purinoceptor 12 (Q9EPX4 whole entry): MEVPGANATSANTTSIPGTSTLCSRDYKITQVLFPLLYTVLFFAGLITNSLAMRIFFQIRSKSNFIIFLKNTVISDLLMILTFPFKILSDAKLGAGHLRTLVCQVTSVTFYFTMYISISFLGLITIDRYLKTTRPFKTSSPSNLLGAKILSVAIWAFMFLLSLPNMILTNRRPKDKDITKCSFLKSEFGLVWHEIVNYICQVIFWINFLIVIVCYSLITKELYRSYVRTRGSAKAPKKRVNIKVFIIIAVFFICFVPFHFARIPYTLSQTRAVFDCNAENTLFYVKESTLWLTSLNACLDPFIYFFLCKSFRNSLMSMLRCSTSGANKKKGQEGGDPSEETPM
For test [6], the target named is T1, P2Y purinoceptor 1. Briefly: Evaluated for antagonist activity agonist phospholipase C coupled P2Y purinoceptor 1 (P2Y1) of turkey erythrocytes. It counts as functional.

Each structure is given as a SMILES string.

T1 sequence (P49652 whole entry): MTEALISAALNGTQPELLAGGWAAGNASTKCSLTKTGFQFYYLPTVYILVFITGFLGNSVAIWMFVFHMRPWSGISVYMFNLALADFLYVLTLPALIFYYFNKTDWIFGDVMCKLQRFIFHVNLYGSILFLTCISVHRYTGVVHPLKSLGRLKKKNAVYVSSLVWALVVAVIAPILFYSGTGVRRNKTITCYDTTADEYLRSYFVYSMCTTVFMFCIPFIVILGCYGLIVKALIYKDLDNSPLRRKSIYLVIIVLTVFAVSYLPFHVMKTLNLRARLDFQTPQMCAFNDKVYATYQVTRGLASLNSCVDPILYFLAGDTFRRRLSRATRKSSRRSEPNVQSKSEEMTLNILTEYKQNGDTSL

As to `Cc1nc(/N=N/c2cc(S(=O)(=O)O)ccc2Cl)c(COP(=O)(O)O)c(C=O)c1O`, the EC50 at P2Y purinoceptor 1 [1] is 4.4 nM; at P2X purinoceptor 2 [2] it was 1.1 nM.

The molecule `Nc1c(S(=O)(=O)O)cc(Nc2ccc(Nc3nc(Cl)nc(Nc4ccccc4S(=O)(=O)O)n3)c(S(=O)(=O)O)c2)c2c1C(=O)c1ccccc1C2=O` [CIBACRON BLUE 3GA] registered an IC50 against P2X purinoceptor 1 [3] of 9.6 µM. This molecule also gave a dissociation constant (Kd) at P2X purinoceptor 1 [4] of 1600 nM.

On to `Nc1c(S(=O)(=O)O)cc(Nc2ccc(Nc3nc(Cl)nc(Nc4cccc(S(=O)(=O)O)c4)n3)c(S(=O)(=O)O)c2)c2c1C(=O)c1ccccc1C2=O` [RB 2], for which the EC50 is 128 µM on P2X purinoceptor 4; 360 nM at P2X purinoceptor 2 [5]; more than 100 µM at P2Y purinoceptor 2; more than 100 µM on P2Y purinoceptor 11; 25 nM on P2Y purinoceptor 12; more than 10 µM on P2Y purinoceptor 1 [6].

The values are drawn from ChEMBL document CHEMBL1135773, “Purine and pyrimidine (P2) receptors as drug targets” (J Med Chem, 2002).
